Experimental findings from ChEMBL document CHEMBL6182851, “Discovery of dual CDK4/6 and BRD4 inhibitor as apoptosis and autophagy inducers against NSCLC in vitro and in vivo” (Eur J Med Chem, 2025) are described below.

Molecules are shown by their SMILES. pIC50: −log10 of the molar value.

What all share (test): cells
Assay [1] has as its system NCI-H1299. To be noted: Homo sapiens, NCI-H1299, 48 h.
Description: Antitumor activity against human NCI-H1299 cells assessed as inhibition of cell viability incubated for 48 hrs by MTT assay
Assay [2] has as its system A549. To be noted: Homo sapiens, A549, 48 h.
Description: Antitumor activity against human A549 cells assessed as inhibition of cell viability incubated for 48 hrs by MTT assay
Assay [3] relates to NCI-H460. The settings on record: Homo sapiens, NCI-H460, 48 h.
Description: Antitumor activity against human NCI-H460 cells assessed as inhibition of cell viability incubated for 48 hrs by MTT assay

As a reminder, the pIC50 is the negative decadic logarithm of the IC50, by convention in mol/L. Low values mean a high IC50, high ones a low IC50.

Regarding `Cc1ccc2nc(-c3ccc(OCC(=O)N4CCN(c5ccc(Nc6ncc7cc(C(=O)N(C)C)n(C8CCCC8)c7n6)nc5)CC4)cc3)[nH]c(=O)c2c1`, the pIC50 in assay [1] was under 4.40; in assay [2] it was 4.48; in assay [3], under 4.40.
On to `COc1cccc2nc(-c3ccc(OCC(=O)N4CCN(c5ccc(Nc6ncc7cc(C(=O)N(C)C)n(C8CCCC8)c7n6)nc5)CC4)cc3)[nH]c(=O)c12`, for which the results for the pIC50 in assay [1], in assay [2] and in assay [3] were under 4.40, 4.73 and under 4.40, respectively.
As for `COc1cc(-c2nc3ccc(F)cc3c(=O)[nH]2)ccc1OCC(=O)N1CCN(c2ccc(Nc3ncc4cc(C(=O)N(C)C)n(C5CCCC5)c4n3)nc2)CC1`, the pIC50 in assay [1] is under 4.40; in assay [2] it was under 4.40; in assay [3] it was 4.78.
As to `COc1cc(OC)c2c(=O)[nH]c(-c3ccc(OCC(=O)N4CCN(c5ccc(Nc6ncc7cc(C(=O)N(C)C)n(C8CCCC8)c7n6)nc5)CC4)cc3)nc2c1`, the negative logarithm of the IC50 (pIC50) is 5.11 in assay [1], 4.85 in assay [2] and 4.73 in assay [3].
On to `COc1cc(OC)c2c(=O)[nH]c(-c3cc(C)c(OCCCCC(=O)NNc4ncc5cc(C(=O)N(C)C)n(C6CCCC6)c5n4)c(C)c3)nc2c1`, for which the values for the pIC50 in assay [1], in assay [2] and in assay [3] were 4.41, under 4.40 and 4.49, respectively.
For the compound `COc1cc(OC)c2c(=O)[nH]c(-c3ccc(OCC(=O)N4CCN(c5ccc(Nc6ncc7cc(C(=O)N(C)C)n(C8CCCC8)c7n6)nc5)CC4)c(F)c3)nc2c1`, the pIC50 is 4.71 in assay [1], under 4.40 in assay [2] and 4.58 in assay [3].
Take `Cc1cc(-c2nc3ccc(F)cc3c(=O)[nH]2)ccc1OCC(=O)N1CCN(c2ccc(Nc3ncc4cc(C(=O)N(C)C)n(C5CCCC5)c4n3)nc2)CC1`: the negative-log IC50 (pIC50) in assay [1] was under 4.40; in assay [2] it was under 4.40; in assay [3] it was 4.46.
Regarding `CN(C)C(=O)c1cc2cnc(Nc3ccc(N4CCN(C(=O)COc5c(Br)cc(-c6nc7ccc(F)cc7c(=O)[nH]6)cc5Br)CC4)cn3)nc2n1C1CCCC1`, the pIC50 is 4.79 in assay [1], 4.61 in assay [2] and under 4.40 in assay [3].
Taken in the same sequence, the figures for `CN(C)C(=O)c1cc2cnc(Nc3ccc(N4CCN(C(=O)COc5ccc(-c6nc7cc(Cl)ccc7c(=O)[nH]6)cc5)CC4)cn3)nc2n1C1CCCC1` were 5.23, under 4.40 and under 4.40.
As to `COc1cc2nc(-c3ccc(OCC(=O)N4CCN(c5ccc(Nc6ncc7cc(C(=O)N(C)C)n(C8CCCC8)c7n6)nc5)CC4)cc3)[nH]c(=O)c2cc1OC`, the pIC50 is under 4.40 in assay [1], under 4.40 in assay [2] and 4.42 in assay [3].
Consider `COc1cc(OC)c2c(=O)[nH]c(-c3cc(Br)c(OCC(=O)N4CCN(c5ccc(Nc6ncc7cc(C(=O)N(C)C)n(C8CCCC8)c7n6)nc5)CC4)c(Br)c3)nc2c1`, for which the pIC50 was 4.57 in assay [1], 4.77 in assay [2] and 4.41 in assay [3].
In the same order, the values of `COc1cc(OC)c2c(=O)[nH]c(-c3cc(C)c(OCC(=O)NNc4ncc5cc(C(=O)N(C)C)n(C6CCCC6)c5n4)c(C)c3)nc2c1` are 5.06, 4.67 and 4.57.
